Reference: patent US20080233432A1, “Composition, Method for Fabricating Light-Emitting Element, Light-Emitting Element, Light-Emitting Device, and Electronic Device” (Semiconductor Energy Laboratory Co., Ltd., priority 2007, published 2008)

Test: solubility test of organometallic complexes in various solvents
Assay type: physicochemical
Conditions: for solubility x in anisole: solvent having aromatic ring: anisole; for solubility x in toluene: solvent having aromatic ring: toluene; for solubility x in 2-ethoxyethanol / solubility x in ethanol / solubility x in isopropanol / solubility x in methanol / solubility x in diethyl ether: solvent not having aromatic ring; for solubility x in 2-ethoxyethanol: alcohol: 2-ethoxyethanol; for solubility x in ethanol: alcohol: ethanol; for solubility x in isopropanol: alcohol: isopropanol; for solubility x in methanol: alcohol: methanol
Description: In Example 1, the solubility of an organometallic complex having a pyrazine skeleton as described in Embodiment Mode 1 was evaluated. The evaluation was performed by examining the solubility in various solvents. For the solvent, toluene and anisole were each used as a solvent having an aromatic ring. Further, diethyl ether which is ether, and 2-ethoxyethanol, isopropanol, ethanol, and methanol which are alcohols were each used as a solvent not having an aromatic ring.
In addition, the solubility of btp2Ir(acac) (a structural formula (101) given below), which is disclosed in Nonpatent Document 1 was evaluated as a comparative sample A. In addition, the solubility of Ir(ppy)2(acac) (a structural formula (102) given below) was evaluated as a comparative sample B.

SMILES	solubility x in anisole	solubility x in toluene	solubility x in 2-ethoxyethanol	solubility x in ethanol	solubility x in isopropanol	solubility x in methanol	solubility x in diethyl ether
CC(C)c1cnc(-c2[c-]cc(F)cc2)c(-c2ccc(F)cc2)n1.CC(C)c1cnc(-c2[c-]cc(F)cc2)c(-c2ccc(F)cc2)n1.O=C([O-])c1ccccn1.[Ir+3] [Sample 7]	⊚ (a double circle in the case of x≧1.2)	⊚ (a double circle in the case of x≧1.2)	⊚ (a double circle in the case of x≧1.2)	X (a cross in the case of x<0.6)	X (a cross in the case of x<0.6)	X (a cross in the case of x<0.6)	X (a cross in the case of x<0.6)
CC(=O)C=C(C)[O-].[Ir+3].[c-]1ccccc1-c1nccnc1-c1ccccc1.[c-]1ccccc1-c1nccnc1-c1ccccc1 [Sample 1]	⊚ (a double circle in the case of x≧1.2)	◯ (a circle in the case of 1.2>x≧0.9)	X (a cross in the case of x<0.6)	X (a cross in the case of x<0.6)	X (a cross in the case of x<0.6)	X (a cross in the case of x<0.6)	X (a cross in the case of x<0.6)
Cc1cnc(-c2[c-]cc(F)cc2)c(-c2ccc(F)cc2)n1.Cc1cnc(-c2[c-]cc(F)cc2)c(-c2ccc(F)cc2)n1.O=C([O-])c1ccccn1.[Ir+3] [Sample 5]	⊚ (a double circle in the case of x≧1.2)	⊚ (a double circle in the case of x≧1.2)	⊚ (a double circle in the case of x≧1.2)	⊚ (a double circle in the case of x≧1.2)	⊚ (a double circle in the case of x≧1.2)	X (a cross in the case of x<0.6)	X (a cross in the case of x<0.6)
CC(=O)C=C(C)[O-].Cc1cnc(-c2[c-]cc(F)cc2)c(-c2ccc(F)cc2)n1.Cc1cnc(-c2[c-]cc(F)cc2)c(-c2ccc(F)cc2)n1.[Ir+3] [Sample 4]	⊚ (a double circle in the case of x≧1.2)	⊚ (a double circle in the case of x≧1.2)	⊚ (a double circle in the case of x≧1.2)	X (a cross in the case of x<0.6)	X (a cross in the case of x<0.6)	X (a cross in the case of x<0.6)	⊚ (a double circle in the case of x≧1.2)
CC(=O)C=C(C)[O-].Fc1c[c-]c(-c2nccnc2-c2ccc(F)cc2)cc1.Fc1c[c-]c(-c2nccnc2-c2ccc(F)cc2)cc1.[Ir+3] [Sample 2]	⊚ (a double circle in the case of x≧1.2)	◯ (a circle in the case of 1.2>x≧0.9)	X (a cross in the case of x<0.6)	X (a cross in the case of x<0.6)	X (a cross in the case of x<0.6)	X (a cross in the case of x<0.6)	X (a cross in the case of x<0.6)

The remaining lines, values ahead:

solubility x in anisole	solubility x in toluene	solubility x in 2-ethoxyethanol	solubility x in ethanol	solubility x in isopropanol	solubility x in methanol	solubility x in diethyl ether	SMILES
⊚ (a double circle in the case of x≧1.2)	⊚ (a double circle in the case of x≧1.2)	⊚ (a double circle in the case of x≧1.2)	X (a cross in the case of x<0.6)	X (a cross in the case of x<0.6)	X (a cross in the case of x<0.6)	⊚ (a double circle in the case of x≧1.2)	CC(=O)C=C(C)[O][Ir]([c]1ccccc1-c1ncc(-c2ccccc2)nc1-c1ccccc1)[c]1ccccc1-c1ncc(-c2ccccc2)nc1-c1ccccc1 [Sample 10, (acetylacetonato)bis(2,3,5-triphenylpyrazinato)iridium(III)]
⊚ (a double circle in the case of x≧1.2)	⊚ (a double circle in the case of x≧1.2)	⊚ (a double circle in the case of x≧1.2)	Δ (a triangle in the case of 0.9>x≧0.6)	Δ (a triangle in the case of 0.9>x≧0.6)	X (a cross in the case of x<0.6)	⊚ (a double circle in the case of x≧1.2)	CC(=O)C=C(C)[O-].Cc1nc(C(C)C)cnc1-c1[c-]cccc1.Cc1nc(C(C)C)cnc1-c1[c-]cccc1.[Ir+3] [Sample 9]
